Key:
[1] = molecular target: T1, human PI3Kα (PIK3CA/PIK3R1) (Homo sapiens, UniProt P42336); assay: lipid kinase assay (ADP-Glo), PI3Kα; assay type: biochemical
T1 construct: purchased ProQinase, Germany 1161‐1165‐1
Procedure: (§1) In vitro selection, lipid kinase assay: To determine the inhibitory activity of the new molecular entities on PI3K enzyme, a lipid kinase assay was performed: recombinant proteins (30 ng), human PI3Kα (PIK3CA/PIK3R1, #1161‐1165‐1 ProQinase–Germany), hPI3Kβ (PIK3CB wt/PIK3R1, #1168‐1165‐1 ProQinase, Germany), hPI3Kγ (PIK3CG, #1163‐0000‐1 ProQinase, Germany), hPI3Kδ (PIK3CD/PIK3R1, #1162–1165‐1 ProQinase, Germany), hPI3K‐C2α (PIK3C2A, #14‐906 Merck Millipore_Merck KGaA, Germany), hPI3K‐C2β (PIK3C2B, #14‐907 Merck Millipore_Merck KGaA, Germany), hPI3K‐c2γ (PIK3C2G, #1207‐0000‐1 ProQinase, Germany), and hVps34 (PIK3C3, #1160‐0000‐1 ProQinase, Germany), were incubated in kinase buffer {12.5 μL; 20 mM Tris‐HCl pH 7.5, 10 mM MgCl2, 10 μM ATP, 0.05 mg mL^−1 BSA, 0.5 mM EDTA, 5 mM HEPES pH 7.5, for PI3Kα,PI3Kβ, PI3Kγ, PI3Kδ, PI3KC‐2α, and PI3KC‐2γ; 15 mM MnCl2, 5 mM EGTA, 100 μM ATP, 50 mM HEPES pH 7.5, 100 mM NaCl, and 0.03 % CHAPS for PI3K‐C2β and VPS34 {BSA=bovine serum albumin; EDTA=ethylenediaminetetraacetic acid; HEPES=4‐(2‐hydroxyethyl)‐1‐piperazineethanesulfonic acid; EGTA=ethylene glycol‐bis(2‐aminoethylether)‐N,N,N′,N′‐tetraacetic acid; CHAPS=3‐[(3‐cholamidopropyl)dimethylammonio]‐1‐propanesulfonate}. In the reaction, the ATP concentration used for different PI3Ks was defined on the basis of the Michaelis–Menten kinetics of each enzyme, provided by the supplier. Reaction was performed in presence of 0.5 mg mL^−1 lipid micelles (1:1 phosphatidylinositol/phosphatidylserine) and in the absence (DMSO alone) or presence of increasing concentrations of each compound (from 0.1 nM to 30 μM). The mixture was kept at room temperature (RT) for 30 min for PI3Kα, PI3Kβ, PI3Kγ, PI3Kδ, PI3KC‐2α, and PI3KC‐2γ and for 1 h for PI3K‐C2β and PI3K‐C3. The amount of ADP produced in the reaction was measured by using the ADP‐Glo Kinase Assay kit from Promega (#V9102) and a luminescence reader (Glomax multi detection system, Promega, model number 9301‐010).
(§2) The residual PI3K lipid kinase activity in the presence of each molecule at different concentrations was related to the control, intended as the recombinant protein in the presence of DMSO alone and was expressed as a percentage. To derive the IC50 value, all data (% of lipid kinase activity) were plotted on a dose–response curve (Graph Pad software), and the IC50 was calculated by using nonlinear regression fit (equation [log agonist] versus response).

hPI3K‐C2α (PIK3C2A) = hPI3K‐C2α (PIK3C2A) (Homo sapiens, UniProt O00443); assay: lipid kinase assay (ADP-Glo), PI3K-C2α; assay type: biochemical; conditions: Table 2; mean of at least three determinations, 95 % confidence intervals; read-out: IC50 PI3Kc2α
hPI3K‐C2α (PIK3C2A), sequence (O00443 whole entry): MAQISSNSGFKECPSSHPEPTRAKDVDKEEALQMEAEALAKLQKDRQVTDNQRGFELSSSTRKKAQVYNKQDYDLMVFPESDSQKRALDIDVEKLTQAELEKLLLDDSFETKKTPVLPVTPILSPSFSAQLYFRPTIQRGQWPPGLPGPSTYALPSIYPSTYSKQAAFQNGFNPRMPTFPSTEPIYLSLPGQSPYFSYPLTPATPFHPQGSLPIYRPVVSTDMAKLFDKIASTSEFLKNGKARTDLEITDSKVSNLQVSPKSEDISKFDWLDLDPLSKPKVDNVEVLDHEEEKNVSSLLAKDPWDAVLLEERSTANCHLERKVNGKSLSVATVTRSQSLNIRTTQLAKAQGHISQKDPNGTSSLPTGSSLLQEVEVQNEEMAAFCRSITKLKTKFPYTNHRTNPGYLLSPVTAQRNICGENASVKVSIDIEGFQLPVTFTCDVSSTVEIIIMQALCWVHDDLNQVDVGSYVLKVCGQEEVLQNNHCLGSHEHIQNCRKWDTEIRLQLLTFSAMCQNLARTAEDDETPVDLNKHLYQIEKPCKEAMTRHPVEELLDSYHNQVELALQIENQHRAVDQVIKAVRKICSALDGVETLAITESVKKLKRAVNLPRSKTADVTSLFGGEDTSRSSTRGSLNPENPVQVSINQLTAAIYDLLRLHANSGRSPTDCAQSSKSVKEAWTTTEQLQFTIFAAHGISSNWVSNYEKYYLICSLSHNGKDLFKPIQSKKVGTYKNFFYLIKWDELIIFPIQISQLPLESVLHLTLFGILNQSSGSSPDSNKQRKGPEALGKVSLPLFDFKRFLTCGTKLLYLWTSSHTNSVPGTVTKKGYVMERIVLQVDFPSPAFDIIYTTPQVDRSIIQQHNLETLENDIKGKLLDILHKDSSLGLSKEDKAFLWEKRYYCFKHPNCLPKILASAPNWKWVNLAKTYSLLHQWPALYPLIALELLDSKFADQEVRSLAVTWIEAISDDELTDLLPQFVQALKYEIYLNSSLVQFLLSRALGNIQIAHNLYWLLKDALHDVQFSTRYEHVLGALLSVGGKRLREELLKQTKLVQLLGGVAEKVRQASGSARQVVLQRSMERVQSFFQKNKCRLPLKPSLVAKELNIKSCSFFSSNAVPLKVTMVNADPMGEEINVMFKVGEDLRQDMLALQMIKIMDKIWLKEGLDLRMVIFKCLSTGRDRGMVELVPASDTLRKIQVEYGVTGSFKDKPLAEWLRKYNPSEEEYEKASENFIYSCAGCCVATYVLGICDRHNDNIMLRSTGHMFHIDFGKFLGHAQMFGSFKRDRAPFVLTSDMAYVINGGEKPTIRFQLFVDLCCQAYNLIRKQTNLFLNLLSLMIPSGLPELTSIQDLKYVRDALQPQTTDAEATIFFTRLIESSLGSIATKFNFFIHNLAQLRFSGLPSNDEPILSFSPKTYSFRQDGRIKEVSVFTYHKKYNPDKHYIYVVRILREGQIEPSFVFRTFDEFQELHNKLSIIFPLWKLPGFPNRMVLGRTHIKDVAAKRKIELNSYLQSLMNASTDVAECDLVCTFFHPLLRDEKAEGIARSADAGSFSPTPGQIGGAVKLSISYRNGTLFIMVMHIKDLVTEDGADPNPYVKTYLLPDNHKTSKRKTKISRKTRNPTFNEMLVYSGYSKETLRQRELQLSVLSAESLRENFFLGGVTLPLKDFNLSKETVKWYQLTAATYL
Procedure: as §1, with “Reaction was performed in presence of 0.5 mg mL^−1 lipid micelles (1:1 phosphatidylinositol/phosphatidylserine) and in the absence (DMSO alone) or presence of increasing concentrations of each compound (from 0.1 nM to 30 μM). The mixture was kept at room temperature (RT) for 30 min for PI3Kα, PI3Kβ, PI3Kγ, PI3Kδ, PI3KC‐2α, and PI3KC‐2γ and for 1 h for PI3K‐C2β and PI3K‐C3. The amount of ADP produced in the reaction was measured by using the ADP‐Glo Kinase Assay kit from Promega (#V9102) and a luminescence reader (Glomax multi detection system, Promega, model number 9301‐010).” left out

hPI3Kδ (PIK3CD/PIK3R1) = molecular target: T2, hPI3Kδ (PIK3CD/PIK3R1) (Homo sapiens, UniProt O00329); assay: lipid kinase assay (ADP-Glo), PI3Kδ; assay type: biochemical
T2 construct: purchased ProQinase, Germany 1162–1165‐1
T2 sequence (O00329 whole entry): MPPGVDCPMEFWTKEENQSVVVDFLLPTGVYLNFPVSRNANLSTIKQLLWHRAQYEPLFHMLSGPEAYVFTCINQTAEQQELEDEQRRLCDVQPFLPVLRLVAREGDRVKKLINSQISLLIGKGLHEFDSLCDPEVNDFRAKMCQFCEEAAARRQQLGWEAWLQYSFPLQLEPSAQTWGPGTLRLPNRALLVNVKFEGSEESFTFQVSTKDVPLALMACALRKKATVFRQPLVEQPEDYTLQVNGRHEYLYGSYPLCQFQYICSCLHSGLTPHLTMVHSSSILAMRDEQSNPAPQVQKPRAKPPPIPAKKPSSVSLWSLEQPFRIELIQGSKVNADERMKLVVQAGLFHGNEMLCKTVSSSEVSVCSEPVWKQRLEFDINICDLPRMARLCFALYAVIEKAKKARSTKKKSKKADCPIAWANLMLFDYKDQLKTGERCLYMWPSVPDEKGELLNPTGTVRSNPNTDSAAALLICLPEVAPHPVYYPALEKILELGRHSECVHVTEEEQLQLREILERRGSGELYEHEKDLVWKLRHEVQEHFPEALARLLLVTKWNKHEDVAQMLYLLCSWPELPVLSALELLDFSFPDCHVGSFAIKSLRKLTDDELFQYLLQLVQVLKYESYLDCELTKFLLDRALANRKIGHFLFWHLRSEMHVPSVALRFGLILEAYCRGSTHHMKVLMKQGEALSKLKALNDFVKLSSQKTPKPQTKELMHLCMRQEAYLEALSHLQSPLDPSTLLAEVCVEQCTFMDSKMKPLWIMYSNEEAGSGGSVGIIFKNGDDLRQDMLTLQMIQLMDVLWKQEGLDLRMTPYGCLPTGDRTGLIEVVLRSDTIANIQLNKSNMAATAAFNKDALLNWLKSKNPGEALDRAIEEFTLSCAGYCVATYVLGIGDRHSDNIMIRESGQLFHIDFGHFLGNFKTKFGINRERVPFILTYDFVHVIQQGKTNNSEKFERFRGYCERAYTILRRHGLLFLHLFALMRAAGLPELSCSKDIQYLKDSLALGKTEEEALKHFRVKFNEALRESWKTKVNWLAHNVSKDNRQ
T2 sequence (P27986 whole entry partner): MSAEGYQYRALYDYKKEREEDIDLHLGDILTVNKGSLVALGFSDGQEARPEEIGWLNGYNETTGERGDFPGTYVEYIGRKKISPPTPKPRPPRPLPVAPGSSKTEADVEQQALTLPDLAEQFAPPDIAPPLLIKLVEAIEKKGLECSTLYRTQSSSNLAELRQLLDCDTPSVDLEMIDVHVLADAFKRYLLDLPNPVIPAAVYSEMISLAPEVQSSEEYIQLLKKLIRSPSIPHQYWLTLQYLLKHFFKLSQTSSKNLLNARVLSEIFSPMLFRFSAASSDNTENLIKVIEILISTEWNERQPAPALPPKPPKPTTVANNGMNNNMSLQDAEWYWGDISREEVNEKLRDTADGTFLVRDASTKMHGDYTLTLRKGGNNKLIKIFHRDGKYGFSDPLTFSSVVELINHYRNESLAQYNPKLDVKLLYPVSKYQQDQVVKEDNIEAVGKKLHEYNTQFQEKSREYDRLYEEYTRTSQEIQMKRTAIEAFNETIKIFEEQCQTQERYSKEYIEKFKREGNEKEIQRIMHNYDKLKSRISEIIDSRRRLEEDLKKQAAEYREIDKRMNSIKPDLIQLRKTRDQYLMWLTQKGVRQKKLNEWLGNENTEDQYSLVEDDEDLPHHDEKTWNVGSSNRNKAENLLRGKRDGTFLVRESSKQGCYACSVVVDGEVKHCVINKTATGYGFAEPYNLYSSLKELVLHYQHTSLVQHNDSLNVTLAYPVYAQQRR
Procedure: as §1, §2

[2] = system: PI3K/Akt signaling in NIH3T3 cells; assay: insulin-stimulated Akt phosphorylation, Western blot, NIH3T3 cells; assay type: cell-based; conditions: 1 μM insulin for 5 min, immunoblot
Procedure: Figure 8 Treatment with 64 prodrug inhibited PI3K/Akt signaling. NIH3T3 cells were […] for 12 h and were treated with the indicated concentrations of 37 and 64. Cells were next stimulated with 1 μM insulin for 5 min, and total cell lysates were prepared. Immunoblot analysis was conducted for the expression levels of p‐AKT and GAPDH. The immunoblot is representative of three independent experiments.
NIH3T3 cells were seeded in a 96‐well plate and starved overnight (ON) with serum‐free DMEM high glucose GlutaMAXTM (Gibco) supplemented with 5000 U mL^−1 penicillin–streptomycin (Gibco). Cells were then incubated for 1 h with increasing concentrations of 64, 37, or DMSO. Subsequently, cells were stimulated for 5 min with 1 μM of insulin (#91077C, Sigma–Aldrich, USA). Cells were lysed and protein extracts were analyzed by western blot to assess the phosphorylation level of Akt on Ser473.

PC3 cells = assay: analysis of apoptosis, Annexin V staining; assay type: cell-based; conditions: 10 μM, 48 h
Procedure: Analysis of apoptosis: For Annexin V staining of apoptotic cells, PC3 cells were seeded at 4×10^5 cells per 6 cm dish in triplicate. Cells were incubated 48 h in the presence or absence of 10 μM 64 and were then detached with 0.1 % trypsin–EDTA, resuspended in Annexin buffer (10 mM HEPES, pH 7.4, 140 mM NaCl, 2.5 mM CaCl2), and stained for Annexin V (FITC Annexin V #640906, BioLegend, USA). Samples were analyzed by using a FACS‐Calibur flow cytometer (Becton Dickinson Immunocytometry Systems, San Jose, USA).

T1 sequence (P42336 whole entry): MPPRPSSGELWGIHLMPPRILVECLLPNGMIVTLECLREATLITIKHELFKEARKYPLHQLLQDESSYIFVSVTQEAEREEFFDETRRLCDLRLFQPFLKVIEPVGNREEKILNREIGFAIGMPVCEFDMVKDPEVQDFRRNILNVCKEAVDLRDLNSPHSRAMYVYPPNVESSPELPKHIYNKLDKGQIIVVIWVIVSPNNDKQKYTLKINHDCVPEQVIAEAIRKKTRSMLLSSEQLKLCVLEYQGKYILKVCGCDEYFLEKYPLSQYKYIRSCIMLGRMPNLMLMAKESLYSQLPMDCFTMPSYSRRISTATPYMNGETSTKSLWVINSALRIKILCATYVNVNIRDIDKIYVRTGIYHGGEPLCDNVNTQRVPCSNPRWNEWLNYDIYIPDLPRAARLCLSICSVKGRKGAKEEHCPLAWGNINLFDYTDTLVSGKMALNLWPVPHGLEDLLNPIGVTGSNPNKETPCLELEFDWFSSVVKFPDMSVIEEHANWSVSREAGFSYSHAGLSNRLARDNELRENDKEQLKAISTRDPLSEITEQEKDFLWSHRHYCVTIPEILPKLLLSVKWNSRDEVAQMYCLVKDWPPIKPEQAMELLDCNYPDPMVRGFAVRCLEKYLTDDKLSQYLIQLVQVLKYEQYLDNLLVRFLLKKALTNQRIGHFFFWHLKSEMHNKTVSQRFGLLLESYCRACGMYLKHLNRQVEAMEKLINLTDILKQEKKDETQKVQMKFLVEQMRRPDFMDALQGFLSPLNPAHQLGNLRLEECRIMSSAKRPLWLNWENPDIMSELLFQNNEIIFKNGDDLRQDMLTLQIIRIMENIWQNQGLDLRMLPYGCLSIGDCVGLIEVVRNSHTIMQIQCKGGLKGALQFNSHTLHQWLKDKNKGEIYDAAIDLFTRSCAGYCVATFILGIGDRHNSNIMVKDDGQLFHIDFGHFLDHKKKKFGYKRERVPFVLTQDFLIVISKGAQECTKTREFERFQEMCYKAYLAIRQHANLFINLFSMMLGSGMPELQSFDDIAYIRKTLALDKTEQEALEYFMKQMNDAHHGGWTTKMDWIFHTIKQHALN
T1 sequence (P27986 whole entry partner): as the sequence (P27986 whole entry partner) above

inhibition of PI3Kα activity ([1]; at 100 nM)	SMILES	IC50 ([1]; Table 2, mean of at least three determinations, 95 % confidence intervals, read-out: IC50 PI3Kα) [µM]	inhibition at 1 µM ([1]; determined at 1 μM, at least triplicate, read-out: Inhibitory activity, PI3K isoform α) [%]	IC50 (hPI3K‐C2α (PIK3C2A)) [µM]	IC50 (hPI3Kδ (PIK3CD/PIK3R1); Table 2, mean of at least three determinations, 95 % confidence intervals) [µM]	inhibition at 1 µM (hPI3Kδ (PIK3CD/PIK3R1); determined at 1 μM, at least triplicate, read-out: Inhibitory activity, PI3K isoform δ) [%]	Akt phosphorylation after insulin stimulation [2]	effect on cell apoptosis (PC3 cells)
	O=C(O)c1cccc(Cn2cc(-c3cccc4c(=O)cc(N5CCOCC5)[nH]c34)nn2)c1 [Compound 37, 3‐{[4‐(2‐Morpholino‐4‐oxo‐1,4‐dihydroquinolin‐8‐yl)‐1H‐1,2,3‐triazol‐1‐yl]methyl}benzoic acid]	0.018 ± 0.004	> 50	3.7 ± 1.1	0.019 ± 0.004	> 50	did not decrease Akt phosphorylation	
not able to inhibit PI3Kα activity	COC(=O)c1cccc(Cn2cc(-c3cccc4c(=O)cc(N5CCOCC5)[nH]c34)nn2)c1 [Compound 64, Methyl 3‐{[4‐(2‐morpholino‐4‐oxo‐1,4‐dihydroquinolin‐8‐yl)‐1H‐1,2,3‐triazol‐1‐yl]methyl}benzoate]						able to inhibit the PI3K‐signaling pathway in a dose‐dependent manner	did not show any effect in inducing cell apoptosis
